Experimental data taken from ChEMBL document CHEMBL1159331, “Cytotoxic prenylated xanthones and the unusual compounds anthraquinobenzophenones from Cratoxylum sumatranum” (J Nat Prod, 2002).
≈ marks a conversion by molar mass, not a printed value. Calls of active or inactive are those of the source. The calls are words filed in the database; no cut-off is given here.

What was measured:
[1] = tested on: KB; assay: Cytotoxicity against human KB cells by MTT assay; type: functional, cell-based
[2] = tested on: P388; assay: In vivo antitumor activity against mouse P388 cells at 75 mg/kg, ip; type: functional, organism-based; design: dose 75 mg/kg

Row | SMILES | Activity [1] | EC50 [1] | Activity [2]
1 | COc1cc2c(c(O)c1C(CC(C)C)c1c(OC/C=C(\C)CCC=C(C)C)cc(O)c(C(=O)c3ccccc3)c1O)C(=O)c1c(O)cc(C)cc1C2=O (stereo not given) | inactive |  | 
2 | COc1cc2c(c(O)c1C(CC(C)CCC=C(C)C)c1c(OC/C=C(\C)CCC=C(C)C)cc(O)c(C(=O)c3ccccc3)c1O)C(=O)c1c(O)cc(C)cc1C2=O (stereo not given) | inactive |  | 
3 | CC(C)=CCC/C(C)=C/Cc1c(O)cc(O)c2oc3cc(O)c(CC=C(C)C)c(O)c3c(=O)c12 [CRATOXYARBORENONE A] |  | 4.3 µg/mL (≈ 9.26 µM) | 
4 | CC(C)=CCc1c(O)cc2oc3c(O)cc(O)c(CC=C(C)C)c3c(=O)c2c1O [CRATOXYARBORENONE B] |  | 1 µg/mL (≈ 2.52 µM) | 
5 | COc1cc(OC)c2oc3cc(O)c(CC=C(C)C)c(O)c3c(=O)c2c1CC=C(C)C [CRATOXYARBORENONE C] |  | 1.5 µg/mL (≈ 3.53 µM) | inactive
6 | C=C(C)C1Cc2c(cc3oc4c(O)c(O)c(O)c(CC=C(C)C)c4c(=O)c3c2O)O1 (stereo not given) [CRATOXYARBORENONE D] |  | 1.7 µg/mL (≈ 4.14 µM) | 
7 | COc1c(O)cc2c(=O)c3c(O)cc(O)c(CC=C(C)C)c3oc2c1CC=C(C)C [CRATOXYARBORENONE E] |  | 4.3 µg/mL (≈ 10.5 µM) | 
8 | COc1ccc(O)c2c(=O)c3ccc(O)cc3oc12 [CRATOXYARBORENONE F] |  | 4.1 µg/mL (≈ 15.9 µM) | 
9 | COc1cc2cc3c(c(O)c2c2c1C=CC(C)(C)O2)C(=O)CC(C)(O)C3 (stereo not given) [VISMIONE B] |  | 1.3 µg/mL (≈ 3.67 µM) | 
